According to publication PMC8994274, “A proteolysis-targeting chimera molecule selectively degrades ENL and inhibits malignant gene expression and tumor growth” (Journal of Hematology & Oncology, 2022):

Experiments:
HoxA9, Meis1 and Myc = assay: qPCR expression of HoxA9, Meis1 and Myc in Molm-13 cells; type: cell-based; conditions: 4 days
Description: Previous studies show ENL is required for expression of MLL1-target genes in MLL1-r leukemia. How compound 1-mediated ENL degradation changes expression of HoxA9, Meis1 and Myc, three characteristic genes in MLL1-r leukemia, was examined. Molm-13 cells were treated with compound 1 for 4 days, after which the RNAs were extracted and analyzed.
10^5 cells/mL were incubated with a compound for 4 days and the RNA was extracted using RNeasy mini kit (#74104, Qiagen). 100–1000 ng of total RNA was reverse transcribed using iScript™ Reverse Transcription Supermix (Bio-Rad) using the manufacturer’s protocol. Quantitative real-time PCR was carried out using Fast SYBR Green Master Mix (Applied Biosystems) according to the manufacturer’s instructions. Measurements were performed in triplicate, using GAPDH as the reference gene. Real-time PCR was performed using Biosystems Step One Plus detection system. The following sequences of primers are used: • MYC (forward: 5′-[…]-3′; reverse: 5′-[…]-3′); • HoxA9 (forward: 5′-[…]-3′; reverse: 5′-[…]-3′); • Meis1 (forward: 5′-[…]-3′; reverse: 5′-[…]-3′); • GAPDH (forward: 5′-[…]-3′; reverse: 5′-[…]-3′).

ENL [1] = molecular target: T1, ENL (Homo sapiens, UniProt Q03111); assay: ENL degradation in Molm-13 cells (Western blot); type: cell-based; design: endogenous in cells; conditions: MOLM-13, Molm-13 cells, 24 h
T1 sequence (Q03111 1-559): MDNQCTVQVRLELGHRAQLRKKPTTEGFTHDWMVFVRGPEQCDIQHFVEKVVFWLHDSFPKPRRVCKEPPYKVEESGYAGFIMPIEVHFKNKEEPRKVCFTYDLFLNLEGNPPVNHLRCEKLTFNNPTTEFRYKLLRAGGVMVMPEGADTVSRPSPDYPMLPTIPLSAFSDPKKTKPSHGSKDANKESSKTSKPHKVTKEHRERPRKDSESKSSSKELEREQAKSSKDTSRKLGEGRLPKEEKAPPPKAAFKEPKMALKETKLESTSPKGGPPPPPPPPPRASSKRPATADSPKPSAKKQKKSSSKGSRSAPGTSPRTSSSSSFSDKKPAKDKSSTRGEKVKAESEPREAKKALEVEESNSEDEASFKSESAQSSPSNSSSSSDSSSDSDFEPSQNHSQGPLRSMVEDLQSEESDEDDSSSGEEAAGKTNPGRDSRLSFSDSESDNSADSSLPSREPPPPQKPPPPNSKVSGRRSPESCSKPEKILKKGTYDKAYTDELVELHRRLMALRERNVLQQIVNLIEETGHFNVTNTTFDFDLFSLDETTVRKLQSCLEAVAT
Description: In addition, compound 1 efficiently degraded ENL in another MLL1-r leukemia Molm-13 cells (with MLL1-AF9) with DC50 of 47 nM and Dmax of ~ 88% (Fig. 3e). Moreover, significant ENL degradation can be detected in 2 h and depletion occurred within 24 h (Fig. 3f).
(§1) 3 × 10^6 cells/well were treated with increasing concentrations of a compound for 1 day, and whole proteins were extracted. Equal amounts of proteins were separated on SDS-PAGE and transferred to PVDF membranes. The blots were probed with primary antibodies, followed by anti-rabbit IgG (Thermo Scientific) secondary antibodies. The primary antibodies against ENL (Cell signaling #14893), AF9 (Novusbio #NB100-1565), DOT1L (Cell signaling #77087), AFF4 (Abcam #ab103586), Cyclin T1 (Cell signaling #81464), H3K79me2 (Cell signaling #5427), H3K79me1 (Cell signaling #9398), Histone H3 (Cell signaling #4499), FLAG (Sigma-Aldrich #F1804), β-Actin (Cell signaling #4970) were used in this study.

Panc1 cells = assay: Antiproliferation assay, Panc1; conditions: Homo sapiens, PANC-1, 168 h, read-out: Antiproliferative activity, EC50, Panc1
U266 cells = assay: Antiproliferation assay (XTT), U266; conditions: Homo sapiens, U-266, 168 h, read-out: Antiproliferative activity, EC50, U266
Description: (§2) Proliferation inhibition assays for suspension blood cancer cells were performed using an XTT assay kit (Biotium), following our previous methods [22]. EC50 values were determined using Prism 5 and from at least three independent experiments.

Kasumi-1 cells = assay: Antiproliferation assay (XTT), Kasumi-1; conditions: Homo sapiens, Kasumi 1, 168 h, read-out: Antiproliferative activity, EC50, Kasumi-1
Description: as §2

ENL [2] = molecular target: T1, ENL; assay: ENL degradation in MV4;11 cells (Western blot); type: cell-based; design: endogenous in cells; host or cells: MV4;11; conditions: 24 h
Description: We next tested whether these compounds degrade ENL and AF9 in MV4;11 leukemia cells with the MLL1-AF4 oncogene. Upon compound treatment for 24 h, the cells were washed, lysed, and the lysates subjected to SDS-PAGE (sodium dodecyl sulfate–polyacrylamide gel electrophoresis) followed by detection with Western blot.
as §1

ENL [3] = molecular target: T1, ENL; assay: ChIP-qPCR, ENL at gene promoters of Myc and HoxA9; type: cell-based; design: endogenous in cells; host or cells: MV4;11; conditions: MV4;11 cells, 500 nM, 4 days
Description: Chromatin immunoprecipitation (ChIP) followed by qPCR was used to further probe the activity of compound 1 in the gene promoters of Myc and HoxA9, two characteristic MLL1 target genes.
Upon treatment with a compound for 4 days, 10^7 MV4;11 cells were cross-linked with 1% formaldehyde at room temperature for 10 min, followed by the addition of 125 mM glycine. Cells were lysed with nuclear lysis buffer and sonicated to ~ 100–1000 bp fragments, which was incubated at 4 °C overnight with an antibody and IgG (C15410206, Diagenode). Protein A/G Magnetic Beads (10 µL, Novus Biologicals) were added and incubated for 2 h. The beads were washed 3 × with RIPA buffer and 2 × with TE buffer. DNA on the beads was eluted for 2 h at 68 °C in 100 μL of an elution buffer (20 mM Tris pH 7.5, 5 mM EDTA, 50 mM NaCl, 1% SDS, 50 μg/mL proteinase K) (2 ×), and purified using a ChIP DNA Clean & Concentrator kit (Novus Biologicals). qPCR was done using the method described above.

ENL YEATS = molecular target: T2, ENL YEATS (Homo sapiens, UniProt Q03111)
T2 sequence (Q03111 1-138): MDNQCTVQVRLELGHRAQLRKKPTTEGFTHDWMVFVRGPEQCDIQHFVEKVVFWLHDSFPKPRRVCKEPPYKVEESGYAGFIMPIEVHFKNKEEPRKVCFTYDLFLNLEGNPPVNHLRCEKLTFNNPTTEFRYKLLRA
Description: cDNA for human ENL YEATS domain (1–138) was synthesized (by Genscript) and cloned into pET-28a vector.
AlphaScreen binding assay was developed using Perkin-Elmer AlphaScreen Histidine (Nickel Chelate) Detection Kit, following a reported protocol [39]. Data were imported into Prism (version 5.0), and IC50 values from 3 independent experiments with standard deviation were obtained by using a standard dose–response curve fitting.

SMILES: C[C@H]1CCCN1Cc1nc2cc(NC(=O)c3ccc4c(cnn4CCCCCCCCNc4cccc5c4C(=O)N(C4CCC(=O)NC4=O)C5=O)c3)ccc2[nH]1 (stereo partly shown) [Compound 1]
- Expression of HoxA9, Meis1 and Myc (HoxA9, Meis1 and Myc): significantly inhibit expression
- Dmax (ENL [1]): 88%
- EC50 (Panc1 cells): > 50 µM
- EC50 (U266 cells): 4.1 ± 1.8 µM
- EC50 (Kasumi-1 cells): 1.1 ± 0.03 µM
- Dmax (ENL [2]; MV4-11, MV4;11 cells, read-out: Dmax (maximal degradation) of ENL): ~95%
- Concentration of maximal ENL-degrading activity (hook effect above) (ENL [2]; MV4;11 cells): ~ 500 nM
- DC50 (ENL [2]; MV4;11 cells, read-out: DC50 (concentration at which a protein is reduced by 50%) of ENL): 0.037 µM
- ENL levels at gene promoters of Myc and HoxA9 (ENL [3]): significantly reduced
- IC50 (ENL YEATS): 0.17 µM
